Data from patent publication US8986729B2, “Palatable suspending vehicle for pharmaceutical ingredients” (Fagron, Inc., priority 2004, dated 2015).
Where a name gives a salt, the structure may show the parent alone.

What was measured:
[1] = Subjective rating of drug suspensions immediately after preparation (ease of preparation, homogeneity, viscosity); type: physicochemical; settings: for phase separation of the suspending agent from the liquid phase: drug preparation in OO; for Homogeneity: scale 0-10, 0=drug settles completely and immediately, 10=consistently homogenous; for Viscosity: subjective scale 0-10, 0=water, 10=thick molasses
Description: (§1) Suspensions of baclofen, bethanechol chloride, labetalol hydrochloride, verapamil hydrochloride, or ibuprofen were prepared in VE1 or OO. […] The wetted powder was incorporated into 50 ml VE1 or OO by geometric dilution and stored in individual non-opaque containers. […] The concentrations of the pharmaceutical compounds in suspension represent ‘typical’ prescribed preparations.
The suspensions were evaluated immediately after preparation with respect to ease of preparation, homogeneity, and viscosity by the pharmaceutical technician preparing the suspensions. The suspensions were rated on a subjective scale of 0-10: ease of preparation, 0=difficult, 10=very easy; homogeneity, 0=drug settles completely and immediately, 10=consistently homogenous in appearance along the vertical axis; viscosity, 0=water, 10=thick molasses.

[2] = Settling and resuspendability of drug suspensions after 7 days storage; type: physicochemical; settings: for Settling: 7 days, dark, room temperature, scale 0-10, 10=none, 0=all at bottom; for Resuspendability: after 7 days, moderate shaking, scale 0-10, 10=perfectly homogenous
Description: as §1
The suspensions were stored in the dark at room temperature for 7 days and then settling of the drugs and resuspendability of sedimented drug in OO or VE1 was evaluated. Settling and resuspendability of the drugs was rated on a subjective scale of 0-10: settling (how much product apparent at bottom of container, 10=none, 0=all); resuspendability (how homogenous does the product appear after moderate shaking, 10=perfectly homogenous, 0=not homogenous (heterogeneous)). Resuspendability of sedimented ingredients was evaluated after evaluation of settling. The suspensions were shaken deliberately (stepwise), with frequent inspections of the bottom of the container.

[3] = drug suspension in OO, hydrochloride
[4] = drug suspension in OO, listed as verapamil hydrochloride, hydrochloride
[5] = drug suspension in OO, listed as bethanechol chloride
[6] = drug suspension in OO, listed as ibuprofen

Structure (SMILES)	Homogeneity ([1]; drug suspension in OO)	Viscosity ([1]; drug suspension in OO)	Homogeneity ([1]; drug suspension in VE1)	Viscosity ([1]; drug suspension in VE1)	Settling ([2]; drug suspension in VE1)	Resuspendability ([2]; drug suspension in VE1)	Settling ([2]; drug suspension in OO)	Settling [2, 5]	Resuspendability ([2]; drug suspension in OO)	Resuspendability [2, 5]	Settling [2, 6]	Resuspendability [2, 6]	Settling ([2]; drug suspension in OO, listed as labetalol hydrochloride, hydrochloride)	Resuspendability ([2]; drug suspension in OO, listed as Labetalol hydrochloride, hydrochloride)	phase separation of the suspending agent from the liquid phase [1]	Settling [2, 3]	Settling [2, 4]	Resuspendability [2, 3]	Resuspendability [2, 4]
COc1ccc(CCN(C)CCCC(C#N)(c2ccc(OC)c(OC)c2)C(C)C)cc1OC (stereo not drawn) [Verapamil Hydrochloride, verapamil hydrochloride]	8	2	9	7	7	9	–	–	–	–	–	–	–	–	phase separation	2	large portion	6	more difficult to resuspend
NCC(CC(=O)O)c1ccc(Cl)cc1 (stereo not drawn) [Baclofen, baclofen]	9	6	9	7	8	9	–	–	–	–	–	–	–	–	–	–	–	–	–
CC(CCc1ccccc1)NCC(O)c1ccc(O)c(C(N)=O)c1 (stereo not drawn) [Labetalol Hydrochloride, labetalol hydrochloride]	3	1	9	7	9	9	–	–	–	–	–	–	large portion	more difficult to resuspend	phase separation	2	–	3	–

Second part, led by results:

Homogeneity ([1]; drug suspension in OO)	Viscosity ([1]; drug suspension in OO)	Homogeneity ([1]; drug suspension in VE1)	Viscosity ([1]; drug suspension in VE1)	Settling ([2]; drug suspension in VE1)	Resuspendability ([2]; drug suspension in VE1)	Settling ([2]; drug suspension in OO)	Settling [2, 5]	Resuspendability ([2]; drug suspension in OO)	Resuspendability [2, 5]	Settling [2, 6]	Resuspendability [2, 6]	Settling ([2]; drug suspension in OO, listed as labetalol hydrochloride, hydrochloride)	Resuspendability ([2]; drug suspension in OO, listed as Labetalol hydrochloride, hydrochloride)	Structure (SMILES)	phase separation of the suspending agent from the liquid phase [1]	Settling [2, 3]	Settling [2, 4]	Resuspendability [2, 3]	Resuspendability [2, 4]
9	5	9	7	8	9	6	minimal to moderate sedimentation	9	easily resuspended	–	–	–	–	CC(C[N+](C)(C)C)OC(N)=O (stereo not drawn) [Bethanechol Chloride, bethanechol chloride]	–	–	–	–	–
9	4	9	7	8	9	7	–	9	–	minimal to moderate sedimentation	easily resuspended	–	–	CC(C)Cc1ccc(C(C)C(=O)O)cc1 (stereo not drawn) [Ibuprofen, ibuprofen]	–	–	–	–	–
